Test results reported in patent US9290740B2, “Use of basic fibroblast growth factor in the de-differentiation of animal connective tissue cells” (Worcester Polytechnic Institute, priority 2008, dated 2016).
Entries after “also recorded” stand apart in the source; their conditions may differ.

Experiments:
[1] = test system: Msx-1, Msx-2, Sox-2, Oct-4 and Nanog in adult human fibroblasts (CRL-2352); test: Immunocytochemistry / western blot for stem cell transcription factors in FGF2-cultured fibroblasts; type: cell-based
Experimental: (§1) Adult human fibroblasts (CRL-2352, ATCC) were cultured in conditions of 37° C., 5% CO2, 5% O2 90% N2 were seeded into 24 well plates (BD Falcon) either without substrate or with 15 mm Thermanox® coverslips (Nalge Nunc) at 5,000 cells per well in medium consisting of DMEM with 4 mM fresh L-glutamine: Ham's F12 medium (50:50) supplemented with 1×TCH serum replacement (Protide Pharmaceuticals), 1×ITS-X (Invritrogen), 2% FetalClone III (Hyclone), and 4 ng/ml FGF2 (Chemicon). After 5 days, the cells were washed with DPBS w/o Ca/Mg (Mediatech) and fixed in methanol (−20° C.) for 10 min, washed with DPBS and stored in DPBS at 4° C. until use. For detection of nuclear antigens (Msx-1, Msx-2, Sox-2, Oct-4 and Nanog), enhanced nuclear membrane permeabilization was performed by incubation with 1.5 N HCl for 20 min, followed by 3 washes (5 min) in PBS. For immuno-cytochemistry, cells were washed with PBS/Tween (PBS, MediaTech with 0.05% Tween-20, Biorad) and blocked for 30 min at RT with PBS containing 0.05% Tween, 5% FBS, and 1% BSA). Primary antibodies (1:200 dilution) were added in blocking solution for 30 min at RT. Cells were washed 4× in PBS/Tween and Alexafluor-568 labeled appropriate secondary antibody diluted 1:1000 in blocking solution added for 30 min. Cells were washed 4× in PBS/Tween and stored in PBS at 4 C until image analysis. Antibodies used were: Msx-1 (SantaCruz, sc-17726), Msx-2 (Santa Cruz, sc-17729), Sox-2 (Abeam, ab15830), Oct4 (Santa Cruz, sc-8630), Nanog (abeam ab21624) FGF receptor-1 (Abgent, AP7636a), FGF Receptor-2 (Abgent, AP7636a), FGF2 (N-terminus, Santa Cruz sc-1390), FGF2 (internal, Santa Cruz sc-79), fibroblast specific protein (FSP, Sigma). Coverslips were removed and mounted onto glass slides in 80% glycerol in PBS containing 0.1% Na-Azide and sealed with nail polish. Cells were visualized using at Olympus IX81 inverted microscope with epi-fluorescence using appropriate filters (Semrock, Inc.) and phase contrast. Images were collected using a 12 bit Hamamatzu CCD camera (Model C4742-80-12AG) and images processes using Slidebook®.
Fibroblasts were seeded into 24 well plates (BD Falcon) with 15 mm Thermanox® coverslips (Nunc) or #2 12 mm round glass coverslips (VWR) at 5,000 cells per well in medium consisting of DMEM with 4 mM fresh L-glutamine: Ham's F12 medium (60:40) supplemented with 1×TCH serum replacement (Protide Pharmaceuticals), 1×ITS-X (Invitrogen), 2% FetalClone III (Hyclone) and cultured at 37° C., 5% CO2, 5% O2 and 90% N2. For FGF2 treatments, FGF2 (4 ng/ml) was added to the medium at the time of seeding. After 7 days, the cells were washed with DPBS w/o Ca/Mg (Mediatech) and fixed in methanol (−20° C.) for 10 min, washed with DPBS and stored in DPBS at 4 C until use. Cells were washed with PBS/Tween (PBS, MediaTech with 0.05% Tween-20, Biorad) and blocked for 30 min at RT with PBS containing 0.05% Tween, 5% FBS, and 1% BSA). Primary antibodies (2.5 μg/ml) were added in blocking solution for 30 min at RT. Cells were washed 4× in PBS/Tween and Alexafluor-568 labeled appropriate secondary antibody (4 μg/ml) in blocking solution added for 30 min. Cells were washed 4× in PBS/Tween and stored in PBS at 4° C. until image analysis. Antibodies used were: Oct4 (Abcam ab19857), Sox2 (Abcam, ab15830), Nanog (Abcam, ab21624, FGFR-1 (Abgent, AP7636a), FGFR-2 (Abgent, AP7636a), FGFR3 (Abcam ab10651), FGFR4 (Abcam ab41948), FGF2 (Santa Cruz, sc-1390 and sc-79). Coverslips were removed and mounted onto glass slides in 80% glycerol in PBS containing 0.1% Na-Azide and sealed with nail polish. Cells were visualized using an Olympus IX81 inverted microscope with epi-fluorescence using appropriate filters (Semrock, Inc.) and phase contrast. Images were collected using a 12 bit Hamamatzu CCD camera and processed using Slidebook®. […]

[2] = test system: FGFR1, FGFR2, FGFR3, FGFR4 and FGF2 in adult human dermal fibroblasts; test: Expression and localization of FGF2 and FGF receptors (RT-PCR, immunocytochemistry); type: cell-based
Experimental: as §1, with “Slidebook®. […]” for “Slidebook®.”

“FGF2: human recombinant FGF2 (Invitrogen, Chemicon or Protide), basic fibroblast growth factor” was tested, and the “effect on Oct4, Sox2 and Nanog protein” value ([1]; FGF2 4 ng/ml, 5% O2, 7 days) was “translation and nuclear translocation”, the “cells with stem-like nuclear localization of the transcription factors” value ([1]; FGF2, lowered oxygen, 7 days of culture) was “up to 30%” and the “localization of Msx2, Sox2 and Oct4, Thermanox coverslips” value ([1]; Thermanox coverslips, 2% serum, low O2, FGF2) was “detected in the nucleus; also recorded: nuclear localization of all three transcription factors”. The “FGF2 concentration at which Sox-2 is induced” value ([1]; culture for 2 days, preliminary dose response) was 0.5 ng/mL, the “ICC for transcription factors Oct4, Sox2 and Msx1” value ([1]; early transition of cultures grown in the presence of FGF2) was “positive” and the “localization of induced Sox2 expression” value ([1]; preliminary dose response, before change to Thermanox coverslips) was “restricted to the cytoplasm”. The “expression of Msx-2, Sox-2 and Oct-4, tissue culture plastic” value ([1]; tissue culture plastic, low O2, low serum, FGF2 4 ng/ml, 5 days) was “some cytoplasmic expression”, the FGFR4 localization ([2]; FGF2 addition) was “no effect” and the “localization of FGF2, FGFR1 and FGFR2 (immunocytochemistry)” value ([2]; cells supplemented with FGF2) was “in the nucleus as well as on the cell surface; also recorded: translocated to the nucleus”. For the same substance, the “transcription of FGF receptors or FGF2 itself” value ([2]; regardless of the culture conditions) was “no significant effect”.
